The values that follow come from EP4660184A1 (Eurofarma Laboratórios S.A., priority 2023, dated 2024).

In general, IC50 refers to the concentration at which inhibition is half-maximal.

Experiment [1] concerns the target T1, human sodium channels Nav 1.8 (Homo sapiens, UniProt Q9Y5Y9).
T1 construct: expressed in transfected cells
Nature of the experiment: Automated whole-cell voltage-clamp (ScreenPatch 384P) sodium current block, Nav 1.8. The conditions noted are these: CHO cells stably expressing human Nav 1.8; inactivation step -40 mV for 8 seconds, test step 10 mV (TP1A); exposure at least five minutes; room temperature; mean if two or more assays; read-out: Nav1.8 IC50. It is filed as cell-based. As to the method: (§1) Biological assays were performed on Chinese hamster ovary (CHO) cells that express human sodium channels Nav 1.8 or Nav 1.7 in a stable manner.
(§2) The experimental protocol voltage-clamp using the whole cell configuration was established on the automated ScreenPatch® 384P platform (SP384PE, Nanion Technologies, Livingston, NJ) and the results were recorded with a Nanion 384-well Patch Clamp chip (NPC) (Nanion Technologies, Livingston, NJ).
(§3) Formula I compounds were diluted in eight concentrations in the extracellular solution composed of saline saline solution, buffered with HEPES (mM): NaCl, 137; KCl, 4; CaCl2, 3,8; MgCl2, 1; HEPES, 10; Glucose, 10; pH 7.4. The […], 50; CsF, 90; MgCl2, 5; EGTA, 5; HEPES, 10; pH 7.2. The duration of exposure of each compound with cells expressing Nav 1.7 or Nav 1.8 was at least five minutes and the assays were performed at room temperature.
(§4) The measurements of the sodium currents of Nav 1.8 and Nav 1.7 were obtained using the voltage protocol described below.
(§5) A holding voltage of -100 mV was established followed by an inactivation voltage step at -40 mV for 8 seconds, followed by a step of -100 mV for 20 ms, followed by a 20 ms step for 10 mV for Nav 1.8 or 0 mV for Nav 1.7 (TP1A) before returning to the holding voltage of -100 mV.
(§6) The protocol was repeated at a frequency of 0.05 Hz and the amplitude of the current was quantified throughout the recording of the TP1A phase. The variation in the amplitude of the peak current was evaluated according to the formula described below, after exposing the cells expressing the channels to each concentration of the different compounds: % Block = (1−(ITP1A,molecule/ITP1A,basal)×100%, [formula] wherein ITP1A,basal and ITP1A,molecule represent the peaks of sodium current input into TP1A before exposure to the compound and in the presence of the compound, respectively.
(§7) Data were obtained by nonlinear regression (nonlinear least squares) with XLfit for Excel (Microsoft, Redmond, WA).
(§8) The compounds were tested in at least one assay to obtain the value of CI50. For compounds that were tested in two or more assays, the results are described as the mean of the CI50 values.

Experiment [2] deals with T2, human sodium channels Nav 1.7 (Homo sapiens, UniProt Q15858).
T2 construct: expressed in transfected cells
In words: Automated whole-cell voltage-clamp (ScreenPatch 384P) sodium current block, Nav 1.7. The format is cell-based. The conditions noted are these: CHO cells stably expressing human Nav 1.7; inactivation step -40 mV for 8 seconds, test step 0 mV (TP1A); exposure at least five minutes; room temperature; mean if two or more assays; read-out: Nav1.7 IC50. The method, then: as §1, §2, §3, §4, §5, §6, §7, §8

T2 sequence (Q15858 whole entry): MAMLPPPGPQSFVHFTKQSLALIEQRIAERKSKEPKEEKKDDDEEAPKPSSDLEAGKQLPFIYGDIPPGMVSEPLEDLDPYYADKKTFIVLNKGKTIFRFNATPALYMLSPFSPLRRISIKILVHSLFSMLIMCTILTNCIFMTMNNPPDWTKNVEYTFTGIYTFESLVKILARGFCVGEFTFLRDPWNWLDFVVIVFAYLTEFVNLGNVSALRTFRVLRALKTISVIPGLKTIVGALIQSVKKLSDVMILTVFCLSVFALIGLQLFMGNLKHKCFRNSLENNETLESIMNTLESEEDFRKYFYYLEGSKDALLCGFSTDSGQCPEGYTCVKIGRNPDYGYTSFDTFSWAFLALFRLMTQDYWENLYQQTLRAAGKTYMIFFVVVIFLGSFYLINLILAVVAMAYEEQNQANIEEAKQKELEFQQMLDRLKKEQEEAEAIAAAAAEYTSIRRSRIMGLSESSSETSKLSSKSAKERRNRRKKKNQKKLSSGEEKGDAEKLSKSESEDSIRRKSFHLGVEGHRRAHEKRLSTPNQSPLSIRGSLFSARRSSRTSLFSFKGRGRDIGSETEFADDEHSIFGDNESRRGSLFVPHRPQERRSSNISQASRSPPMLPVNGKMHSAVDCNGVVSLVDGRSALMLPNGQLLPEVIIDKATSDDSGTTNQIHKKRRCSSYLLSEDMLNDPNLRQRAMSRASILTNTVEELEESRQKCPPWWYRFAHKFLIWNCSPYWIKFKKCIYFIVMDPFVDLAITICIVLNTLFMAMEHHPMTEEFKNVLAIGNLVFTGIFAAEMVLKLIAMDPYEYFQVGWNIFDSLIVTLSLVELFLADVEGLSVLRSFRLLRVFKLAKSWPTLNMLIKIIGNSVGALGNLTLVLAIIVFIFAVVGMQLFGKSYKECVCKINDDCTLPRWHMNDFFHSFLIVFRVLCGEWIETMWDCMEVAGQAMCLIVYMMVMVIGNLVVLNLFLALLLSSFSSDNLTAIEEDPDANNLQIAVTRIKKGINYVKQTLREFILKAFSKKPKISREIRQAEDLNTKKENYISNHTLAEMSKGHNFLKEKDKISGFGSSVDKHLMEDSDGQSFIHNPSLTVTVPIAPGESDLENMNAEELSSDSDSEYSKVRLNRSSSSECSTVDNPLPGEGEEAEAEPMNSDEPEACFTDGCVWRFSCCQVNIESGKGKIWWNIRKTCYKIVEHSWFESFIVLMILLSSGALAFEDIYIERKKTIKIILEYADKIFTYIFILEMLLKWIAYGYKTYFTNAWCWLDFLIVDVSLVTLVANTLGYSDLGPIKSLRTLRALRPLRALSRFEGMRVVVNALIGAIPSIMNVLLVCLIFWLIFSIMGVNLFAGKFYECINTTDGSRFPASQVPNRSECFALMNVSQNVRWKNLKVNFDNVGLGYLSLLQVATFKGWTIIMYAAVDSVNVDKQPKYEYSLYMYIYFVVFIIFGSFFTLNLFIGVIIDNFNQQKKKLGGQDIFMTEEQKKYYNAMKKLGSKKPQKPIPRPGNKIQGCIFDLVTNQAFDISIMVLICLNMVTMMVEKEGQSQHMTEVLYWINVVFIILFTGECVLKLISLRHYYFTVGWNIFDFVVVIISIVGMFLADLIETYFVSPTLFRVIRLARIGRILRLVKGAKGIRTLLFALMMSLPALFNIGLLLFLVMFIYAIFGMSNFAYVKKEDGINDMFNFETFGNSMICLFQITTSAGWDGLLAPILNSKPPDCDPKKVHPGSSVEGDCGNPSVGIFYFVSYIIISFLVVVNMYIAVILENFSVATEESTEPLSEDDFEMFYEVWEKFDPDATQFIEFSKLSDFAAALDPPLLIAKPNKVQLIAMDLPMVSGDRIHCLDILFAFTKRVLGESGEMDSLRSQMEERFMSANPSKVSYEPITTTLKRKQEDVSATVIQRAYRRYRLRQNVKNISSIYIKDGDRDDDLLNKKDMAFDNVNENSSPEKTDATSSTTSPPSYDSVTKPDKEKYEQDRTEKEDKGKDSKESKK
T1 sequence (Q9Y5Y9 whole entry): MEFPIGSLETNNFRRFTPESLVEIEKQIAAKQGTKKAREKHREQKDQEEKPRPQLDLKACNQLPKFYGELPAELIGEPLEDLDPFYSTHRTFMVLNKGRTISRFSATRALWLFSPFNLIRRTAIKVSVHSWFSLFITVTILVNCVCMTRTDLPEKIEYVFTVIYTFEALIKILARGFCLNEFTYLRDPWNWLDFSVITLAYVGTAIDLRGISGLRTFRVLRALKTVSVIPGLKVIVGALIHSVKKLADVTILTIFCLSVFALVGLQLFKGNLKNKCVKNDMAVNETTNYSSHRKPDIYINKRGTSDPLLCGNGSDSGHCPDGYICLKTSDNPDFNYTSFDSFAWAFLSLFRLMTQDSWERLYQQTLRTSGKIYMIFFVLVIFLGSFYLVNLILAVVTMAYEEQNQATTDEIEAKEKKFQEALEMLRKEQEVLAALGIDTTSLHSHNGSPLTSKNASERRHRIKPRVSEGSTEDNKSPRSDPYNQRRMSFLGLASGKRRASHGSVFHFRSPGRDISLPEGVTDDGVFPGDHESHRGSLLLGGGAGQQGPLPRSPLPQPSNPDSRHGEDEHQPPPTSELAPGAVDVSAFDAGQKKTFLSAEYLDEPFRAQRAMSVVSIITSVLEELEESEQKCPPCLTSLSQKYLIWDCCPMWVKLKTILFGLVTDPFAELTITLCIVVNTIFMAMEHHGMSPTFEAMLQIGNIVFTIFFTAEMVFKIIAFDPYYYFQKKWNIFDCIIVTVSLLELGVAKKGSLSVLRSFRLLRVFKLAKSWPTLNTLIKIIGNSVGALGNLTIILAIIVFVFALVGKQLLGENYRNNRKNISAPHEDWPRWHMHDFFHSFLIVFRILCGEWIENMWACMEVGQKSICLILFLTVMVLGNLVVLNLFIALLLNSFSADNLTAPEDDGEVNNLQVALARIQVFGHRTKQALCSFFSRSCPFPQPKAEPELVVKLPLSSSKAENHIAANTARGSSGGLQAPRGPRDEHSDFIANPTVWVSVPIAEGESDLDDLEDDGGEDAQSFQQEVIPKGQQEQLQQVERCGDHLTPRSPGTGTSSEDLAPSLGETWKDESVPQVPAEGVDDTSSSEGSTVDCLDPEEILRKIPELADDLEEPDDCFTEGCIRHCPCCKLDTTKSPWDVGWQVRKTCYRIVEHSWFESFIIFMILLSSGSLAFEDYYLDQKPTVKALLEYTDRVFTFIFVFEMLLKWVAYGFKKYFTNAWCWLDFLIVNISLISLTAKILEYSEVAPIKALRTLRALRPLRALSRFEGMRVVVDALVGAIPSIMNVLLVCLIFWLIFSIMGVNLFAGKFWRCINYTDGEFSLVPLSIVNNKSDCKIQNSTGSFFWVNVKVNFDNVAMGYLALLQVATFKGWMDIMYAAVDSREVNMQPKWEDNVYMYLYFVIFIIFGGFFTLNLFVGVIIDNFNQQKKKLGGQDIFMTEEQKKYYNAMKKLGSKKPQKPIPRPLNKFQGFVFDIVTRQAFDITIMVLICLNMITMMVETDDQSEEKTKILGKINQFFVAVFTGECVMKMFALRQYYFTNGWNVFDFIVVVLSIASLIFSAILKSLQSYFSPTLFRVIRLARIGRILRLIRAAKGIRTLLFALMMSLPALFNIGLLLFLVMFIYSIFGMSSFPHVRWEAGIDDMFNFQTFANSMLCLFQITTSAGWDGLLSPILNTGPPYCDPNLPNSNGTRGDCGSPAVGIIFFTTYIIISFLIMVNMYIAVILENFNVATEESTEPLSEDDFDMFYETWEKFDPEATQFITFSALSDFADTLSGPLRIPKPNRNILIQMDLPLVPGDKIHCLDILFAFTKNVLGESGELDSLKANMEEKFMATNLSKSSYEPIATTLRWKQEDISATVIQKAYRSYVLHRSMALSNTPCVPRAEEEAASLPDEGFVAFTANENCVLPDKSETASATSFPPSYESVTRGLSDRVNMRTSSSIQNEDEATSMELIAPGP

Turning to `CCOc1ccc(-c2cncc(C(=O)NOCc3ncoc3C)n2)cn1` [Compound 57, 6-(6-ethoxypyridine-3-yl)-N-((5-methyloxazole-4-yl)methoxy)pyrazine-2-carboxamide], the IC50 in experiment [1] and in experiment [2] was above 1000 nM throughout.
Regarding `CCOc1ccc(-c2cncc(C(=O)NOCc3ccnn3C)n2)cn1` [Compound 58], the concentration for half-maximal inhibition (IC50) in experiment [1] and in experiment [2] was above 1000 nM each time.
`CCOc1ccc(-c2cncc(C(=O)NOCc3[nH]cnc3C)n2)cn1` [Compound 59, 6-(6-ethoxypyridine-3-yl)-N-((4-methyl-1H-imidazole-5-yl)methoxy)pyrazine-2-carboxamide]: the IC50 in experiment [1] and in experiment [2] was above 1000 nM in each case.
`CCOc1ccc(-c2cncc(C(=O)NOCc3cccn3C)n2)cn1` [Compound 60, 6-(6-ethoxypyridine-3-yl)-N-((1-methyl-1H-pyrrole-2-yl)methoxy)pyrazine-2-carboxamide]: the 50% inhibitory concentration (IC50) is below 500 nM in experiment [1] and 500 to 1000 nM in experiment [2].
On the same counts, the results for `CCOc1ccc(-c2cncc(C(=O)NOCc3nccn3CC)n2)cn1` [Compound 61, 6-(6-ethoxypyridine-3-yl)-N-((1-ethyl-1H-imidazole-2-yl)methoxy)pyrazine-2-carboxamide] are below 500 nM and above 1000 nM.
Take `CCOc1ccc(-c2cncc(C(=O)NOCc3ccnn3CC)n2)cn1` [Compound 62, 6-(6-ethoxypyridine-3-yl)-N-((1-ethyl-1H-pyrazole-5-yl)methoxy)pyrazine-2-carboxamide]: the concentration for half-maximal inhibition (IC50) in experiment [1] and in experiment [2] was above 1000 nM each time.
As for `CCOc1ccc(-c2cncc(C(=O)NOCc3cncn3C(C)C)n2)cn1` [Compound 63], the half-inhibitory concentration (IC50) in experiment [1] and in experiment [2] was above 1000 nM in each case.
For the molecule `CCOc1ccc(-c2cncc(C(=O)NOCc3ccnn3C(C)C)n2)cn1` [Compound 64], the 50% inhibitory concentration (IC50) in experiment [1] and in experiment [2] was above 1000 nM in each case.
In the case of `CCOc1ccc(-c2cncc(C(=O)NOCc3ocnc3C)n2)cn1` [Compound 65, 6-(6-ethoxypyridine-3-yl)-N-((4-methyloxazole-5-yl)methoxy)pyrazine-2-carboxamide], the IC50 in experiment [1] and in experiment [2] was above 1000 nM each time.
Take `CCOc1ccc(-c2cncc(C(=O)NOCc3occc3OC)n2)cn1` [Compound 66, 6-(6-ethoxypyridine-3-yl)-N-((3-methoxyfuran-2-yl)methoxy)pyrazine-2-carboxamide]: the concentration for half-maximal inhibition (IC50) in experiment [1] and in experiment [2] was above 1000 nM throughout.
Take `CCOc1ccc(-c2cncc(C(=O)NOCc3[nH]ccc3C)n2)cn1` [Compound 67, 6-(6-ethoxypyridine-3-yl)-N-((3-methyl-1H-pyrrole-2-yl)methoxy)pyrazine-2-carboxamide]: the IC50 in experiment [1] was below 500 nM; in experiment [2] it was above 1000 nM.
Turning to `CCOc1ccc(-c2cncc(C(=O)NOCc3[nH]ccc3C#N)n2)cn1` [Compound 68], the IC50 in experiment [1] and in experiment [2] was above 1000 nM in each case.
Regarding `CCOc1ccc(-c2cncc(C(=O)NOCc3c[nH]nc3C)n2)cn1` [Compound 69, 6-(6-ethoxypyridine-3-yl)-N-((3-methyl-1H-pyrazole-4-yl)methoxy)pyrazine-2-carboxamide], the concentration for half-maximal inhibition (IC50) in experiment [1] and in experiment [2] was above 1000 nM throughout.
In the case of `CCOc1ccc(-c2cncc(C(=O)NOCc3cn(C(C)C)cn3)n2)cn1` [Compound 70], the IC50 in experiment [1] is below 500 nM; in experiment [2], 500 to 1000 nM.
For `O=C(NOCc1ccccc1F)c1cncc(-c2ccc(OC(F)(F)F)nc2)n1` [Compound 71], the IC50 in experiment [1] and in experiment [2] was below 500 nM throughout.
`COc1cccc(CONC(=O)c2cncc(-c3ccc(OC(F)(F)F)nc3)n2)c1` [Compound 72]: the half-inhibitory concentration (IC50) in experiment [1] and in experiment [2] was below 500 nM in each case.
As for `O=C(NOCc1ccccn1)c1cncc(-c2ccc(OC(F)(F)F)nc2)n1` [Compound 73], the values for the half-inhibitory concentration (IC50) in experiment [1] and in experiment [2] were below 500 nM and above 1000 nM, respectively.
In the case of `O=C(NOCc1cccnc1)c1cncc(-c2ccc(OC(F)(F)F)nc2)n1` [Compound 74], the IC50 in experiment [1] was below 500 nM; in experiment [2], above 1000 nM.
On the same counts, the results for `O=C(NOCc1ccncc1)c1cncc(-c2ccc(OC(F)(F)F)nc2)n1` [Compound 75] are below 500 nM and below 500 nM.
For `COc1ccc(F)c(CONC(=O)c2cncc(-c3ccc(OC(F)(F)F)nc3)n2)c1` [Compound 76], in that order: below 500 nM and 500 to 1000 nM.
On the same counts, the results for `COc1ccc(F)c(CONC(=O)c2cncc(-c3ccc(OC(F)F)nc3)n2)c1` [Compound 77] are above 1000 nM and above 1000 nM.
Regarding `COc1cnc(F)c(CONC(=O)c2cncc(-c3ccc(OC(F)F)nc3)n2)c1` [Compound 78], the concentration for half-maximal inhibition (IC50) in experiment [1] and in experiment [2] was above 1000 nM each time.
Turning to `COc1cc(CONC(=O)c2cncc(-c3ccc(OC(F)F)nc3)n2)c(F)cn1` [Compound 79, 6-(6-(difluoromethoxy)pyridine-3-yl)-N-((5-fluoro-2-methoxypyridine-4-yl)methoxy)pyrazine-2-carboxamide], the IC50 in experiment [1] and in experiment [2] was above 1000 nM throughout.
Consider `CN(C)c1cnc(F)c(CONC(=O)c2cncc(-c3ccc(OC(F)F)nc3)n2)c1` [Compound 80], for which the IC50 in experiment [1] is 500 to 1000 nM; in experiment [2], above 1000 nM.
Turning to `CN(C)c1ccc(F)c(CONC(=O)c2cncc(-c3ccc(OC(F)F)nc3)n2)c1` [Compound 81], the IC50 in experiment [1] and in experiment [2] was above 1000 nM in each case.
As to `COc1cncc(CONC(=O)c2cncc(-c3ccc(OC(F)F)nc3)n2)c1` [Compound 82], the 50% inhibitory concentration (IC50) in experiment [1] and in experiment [2] was above 1000 nM each time.
Regarding `[2H]C([2H])([2H])Oc1ccc(F)c(CONC(=O)c2cncc(-c3ccc(OC(F)F)nc3)n2)c1` [Compound 83], the IC50 in experiment [1] and in experiment [2] was above 1000 nM throughout.
Consider `COc1ccc(F)c(CONC(=O)c2cncc(-c3ccc([S+](C)[O-])nc3)n2)c1` (stereo not drawn) [Compound 84], for which the IC50 in experiment [1] is below 500 nM; in experiment [2], above 1000 nM.
For `CCOc1ccc(-c2cncc(C(=O)NOCc3cc(OC)ccc3F)n2)c(O)c1` [Compound 85], in that order: above 1000 nM and above 1000 nM.
On the same counts, the results for `CCOc1ccc(-c2cncc(C(=O)NOCc3cc(OC)ccc3F)n2)c(C)c1` [Compound 86] are below 500 nM and above 1000 nM.
As to `CCOc1ccc(-c2cncc(C(=O)NOCc3cc(OC)ccc3F)n2)c(OC)c1` [Compound 87], the results for the 50% inhibitory concentration (IC50) in experiment [1] and in experiment [2] were below 500 nM and above 1000 nM, respectively.
For `COc1ccc(F)c(CONC(=O)c2cncc(-c3ccc(OC(F)F)cc3OC)n2)c1` [Compound 88], in that order: above 1000 nM and above 1000 nM.
For `CCOc1ccc(-c2cncc(C(=O)NOCc3cc(OC)ccc3F)n2)cc1O` [Compound 89], in that order: below 500 nM and above 1000 nM.
On the same counts, the results for `CCOc1ccc(-c2cncc(C(=O)NOCc3cc(OC)ccc3F)n2)c(C)n1` [Compound 92] are below 500 nM and above 1000 nM.
Take `CCOc1cc(C)c(-c2cncc(C(=O)NOCc3cc(OC)ccc3F)n2)cn1` [Compound 93]: the half-inhibitory concentration (IC50) in experiment [1] and in experiment [2] was above 1000 nM each time.
On to `CCOc1ccc(-c2cncc(C(=O)NOCc3cc(OC)ccc3F)n2)c(OC)n1` [Compound 94], for which the IC50 in experiment [1] and in experiment [2] was above 1000 nM throughout.
For the molecule `CCOc1ccc(-c2nc(C(=O)NOCc3cc(OC)cc(OC)c3)cnc2O)cc1` [Compound 96], the IC50 in experiment [1] and in experiment [2] was below 500 nM throughout.
On to `CCOc1ccc(-c2nc(C(=O)NOCc3cc(OC)ccc3F)cnc2O)cn1` [Compound 100], for which the half-maximal inhibitory concentration (IC50) in experiment [1] is below 500 nM; in experiment [2] it was above 1000 nM.
For `CCOc1ccc(-c2cnc(O)c(C(=O)NOCc3cc(OC)ccc3F)n2)cn1` [Compound 101], the IC50 in experiment [1] and in experiment [2] was above 1000 nM in each case.
Regarding `CCOc1ccc(-c2nc(C(=O)NOCc3cc(OC)ccc3F)cnc2N)cn1` [Compound 102], the half-inhibitory concentration (IC50) in experiment [1] was below 500 nM; in experiment [2], above 1000 nM.
For `CCOc1ccc(-c2cnc(N)c(C(=O)NOCc3cc(OC)ccc3F)n2)cn1` [Compound 103], in that order: 500 to 1000 nM and above 1000 nM.
For the molecule `CCOc1ccc(-c2nc(C(=O)NOCc3cc(OC)ccc3F)cnc2F)cn1` [Compound 104], the figures for the concentration for half-maximal inhibition (IC50) in experiment [1] and in experiment [2] were below 500 nM and above 1000 nM, respectively.
